Experimental data published in patent US8759392B2, “Amides as inhibitors of human secreted phospholipase A2” (The Regents of the University of California, priority 2008, dated 2014).

Key:
secreted PLA2 = conditions: known inhibitors of FIG. 1; cited from earlier work
human GIVA cPLA2 = biological target: T1, human GIVA cPLA2 (Homo sapiens, UniProt P47712); test: Mixed micelle-based assay, inhibition of GIVA cPLA2; type: biochemical
T1 sequence (P47712 1-749): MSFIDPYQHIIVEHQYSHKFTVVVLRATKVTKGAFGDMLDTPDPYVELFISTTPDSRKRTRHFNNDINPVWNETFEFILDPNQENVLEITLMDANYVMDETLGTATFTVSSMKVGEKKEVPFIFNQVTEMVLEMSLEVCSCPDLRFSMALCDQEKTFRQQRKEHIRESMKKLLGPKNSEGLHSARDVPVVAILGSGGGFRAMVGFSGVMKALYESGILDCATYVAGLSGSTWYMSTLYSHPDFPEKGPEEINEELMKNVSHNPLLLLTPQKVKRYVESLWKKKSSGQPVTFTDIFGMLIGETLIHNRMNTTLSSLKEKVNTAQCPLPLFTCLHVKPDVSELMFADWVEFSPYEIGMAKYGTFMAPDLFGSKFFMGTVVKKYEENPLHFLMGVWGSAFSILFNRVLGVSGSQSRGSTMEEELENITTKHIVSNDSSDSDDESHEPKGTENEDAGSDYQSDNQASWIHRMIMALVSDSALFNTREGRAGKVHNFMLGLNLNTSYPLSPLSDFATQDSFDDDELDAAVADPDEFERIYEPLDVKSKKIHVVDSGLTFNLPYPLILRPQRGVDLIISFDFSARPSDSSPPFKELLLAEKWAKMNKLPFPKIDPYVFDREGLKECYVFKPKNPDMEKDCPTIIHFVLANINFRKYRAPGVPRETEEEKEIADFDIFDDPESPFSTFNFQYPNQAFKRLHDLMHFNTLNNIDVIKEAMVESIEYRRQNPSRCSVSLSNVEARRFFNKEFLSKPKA
Method: (§1) The amides were tested for inhibition of human GIVA cPLA2, GVIA iPLA2 and GV sPLA2 using previously described mixed micelle-based assays. The resulting degrees of inhibition are presented as either percent inhibition or XI(50) values. […] The XI(50) is the mole fraction of the inhibitor in the total substrate interface required to inhibit the enzyme by 50%.

human GVIA iPLA2 = biological target: T2, human GVIA iPLA2 (Homo sapiens, UniProt O60733); test: Mixed micelle-based assay, inhibition of GVIA iPLA2; type: biochemical
T2 sequence (O60733 1-806): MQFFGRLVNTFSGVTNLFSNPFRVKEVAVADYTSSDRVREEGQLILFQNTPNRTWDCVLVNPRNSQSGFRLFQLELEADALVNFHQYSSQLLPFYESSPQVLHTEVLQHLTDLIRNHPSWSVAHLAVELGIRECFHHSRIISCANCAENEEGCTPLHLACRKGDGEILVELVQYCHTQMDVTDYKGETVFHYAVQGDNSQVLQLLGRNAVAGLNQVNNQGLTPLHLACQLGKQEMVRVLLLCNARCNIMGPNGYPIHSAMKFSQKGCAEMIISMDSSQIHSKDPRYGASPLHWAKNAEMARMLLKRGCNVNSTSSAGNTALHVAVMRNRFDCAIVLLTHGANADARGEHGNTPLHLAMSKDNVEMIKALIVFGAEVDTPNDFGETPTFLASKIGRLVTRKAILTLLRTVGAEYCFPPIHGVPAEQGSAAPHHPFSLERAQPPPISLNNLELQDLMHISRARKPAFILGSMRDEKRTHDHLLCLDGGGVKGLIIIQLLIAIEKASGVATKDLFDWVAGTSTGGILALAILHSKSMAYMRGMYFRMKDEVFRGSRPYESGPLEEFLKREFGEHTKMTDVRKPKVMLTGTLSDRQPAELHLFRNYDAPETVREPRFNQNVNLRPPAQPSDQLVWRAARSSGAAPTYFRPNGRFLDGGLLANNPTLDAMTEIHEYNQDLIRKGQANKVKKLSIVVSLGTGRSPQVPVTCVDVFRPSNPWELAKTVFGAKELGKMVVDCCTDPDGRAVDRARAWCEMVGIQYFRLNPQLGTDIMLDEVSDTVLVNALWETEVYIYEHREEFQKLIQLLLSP
Method: as §1

human GV sPLA2 = biological target: T3, human GV sPLA2 (Homo sapiens, UniProt P39877); test: Mixed micelle-based assay, inhibition of GV sPLA2; type: biochemical; conditions: for Inhibition (% at 0.091 mol fraction) sPLA2 GIIA/GV*: 0.091 mole fraction of inhibitor, average and standard error, n = 3
T3 sequence (P39877 21-138): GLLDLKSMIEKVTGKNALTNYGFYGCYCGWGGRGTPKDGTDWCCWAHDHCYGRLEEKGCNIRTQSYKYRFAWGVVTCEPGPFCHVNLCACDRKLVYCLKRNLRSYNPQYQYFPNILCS
Method: FIG. 2 illustrates inhibition curve for an amide of the present disclosure in a mixed-micelle assay with human GV sPLA2. The amides were tested for inhibition of human GIVA cPLA2, GVIA iPLA2 and GV sPLA2 using previously described mixed micelle-based assays.

spinal cord injury (SCI) = test: Spinal cord injury (SCI) in mice
[1] = 0.091 mole fraction of inhibitor, average and standard error, n = 3

Activity on GIVA cPLA2 (in words) (human GIVA cPLA2) | Activity on GVIA iPLA2 (in words) (human GVIA iPLA2) | Activity on GV sPLA2 (in words) (human GV sPLA2) | XI(50) GV sPLA2 (human GV sPLA2; mole fraction of inhibitor in total substrate interface for 50% inhibition, non-linear regression (hyperbolic)) | SMILES | Inhibition of secreted PLA2 (in words) (secreted PLA2) | Inhibition (% at 0.091 mol fraction) sPLA2 GIIA/GV* (human GV sPLA2) | Myelin sparing (luxol fast blue) (spinal cord injury (SCI); 28 days after SCI, […]) | Locomotor function, 9-point Basso Mouse Scale (BMS) score (spinal cord injury (SCI); administration started 1 hour after SCI, vs vehicle treated mice, significant from day 5 dpi through the follow up) | Inhibition (% at 0.091 mol fraction) cPLA2 GIVA (human GIVA cPLA2; [1]) | Inhibition (% at 0.091 mol fraction) iPLA2 GVIA (human GVIA iPLA2; [1]) | XI(50) iPLA2 GVIA (human GVIA iPLA2; mole fraction of inhibitor in total substrate interface required to inhibit the enzyme by 50%)
– | – | – | – | CCC[C@H](CCC(=O)O)NC(=O)CCCCCCc1ccccc1 [Compound 2] | potent inhibitor | – | – | – | – | – | –
not affecting at all | not affecting at all | potent and selective GV sPLA2 inhibitor | 0.003±0.0004 mole fraction | CCCC[C@H](CCC(=O)O)NC(=O)CCCCCCc1ccccc1 [Compound 9, (R)-4-(7-phenylheptanamido)octanoic acid] | – | > 95% | significant myelin sparing | improved locomotor function | – | – | –
– | – | – | – | O=C(CCCCc1ccccc1)C(F)(F)C(F)(F)F [FKGK11, reference compound] | – | 28 ± 1% | – | – | N.D. (N.D. signifies compounds with less than 25% inhibition (or no detectable inhibition)) | > 95% | 0.0096 ± 0.0008 mole fraction
